Experimental data published in patent US6372446B1, “Method of selectively determining a fungal biomass” (Mycometer ApS, priority 1997, dated 2002).

Key:
[1] = tested on: Penicillium commune (IBT 13713); assay: Screening of fungi for enzyme activity with 4-methylumbelliferone-labelled substrates; format: cell-based; details: substrate 10 μM, 25° C., pH 5
[2] = tested on: Cladosporium herbarum (AGM 8); assay: as above; format: cell-based; details: substrate 10 μM, 25° C., pH 5
[3] = tested on: Rhizomucor pusillus (AAS 300); assay: as above; format: cell-based; details: substrate 10 μM, 25° C., pH 5
human hexosaminidase = assay: Cleavage of substrate in human blood and plasma samples; format: biochemical
Excerpt: The diagnostic method detects fungal β-N-acetylhexosaminidase activity in human plasma. […] However, it was discovered that this human hexosaminidase activity can be eliminated by a pre-treatment step comprising precipitation e.g. by adding ammonium sulphate (70% saturation) to the human plasma samples. […] In the samples containing C. albicans culture fluid more than 75% of the fungal β-N-acetylhexosaminidase activity remained after precipitation step to eliminate interfering human enzyme activity. […] After incubation, 300 μl Tris buffer (2.5 M) was added to the mixture to increase the pH to above 9 and the fluorescence measured. This procedure was tested on plasma from different control subjects with no known previous fungal infections. Culture fluids from cultivation of C. albicans or of A. fumigatus containing β-N-acetylhexosaminidase activity were added to the plasma samples. […] After the incubation, Tris buffer was added and the fluorescence formed was measured against the control samples. The presence of fungal β-N-acetylhexosaminidase activity was detected and the fluorescence was proportional to the amount of fungal β-N-acetylhexosaminidase added.

[4] = tested on: Schizophyllum commune (AGM 25); assay: Screening of fungi for enzyme activity with 4-methylumbelliferone-labelled substrates; format: cell-based; details: substrate 10 μM, 25° C., pH 5
[5] = tested on: Trametes versicolor (AGM 24); assay: as above; format: cell-based; details: substrate 10 μM, 25° C., pH 5
[6] = tested on: Aureobasidium pullulans (QM 3092); assay: as above; format: cell-based; details: substrate 10 μM, 25° C., pH 5
[7] = tested on: Aspergillus oryzae (AGM 11); assay: as above; format: cell-based; details: substrate 10 μM, 25° C., pH 5
all fungi tested = assay: Screening of a diverse selection of fungi for ability to degrade 11 substrates (summary); format: cell-based; details: mineral medium and vegetable juice medium
Description: A number of fungi representing different taxonomic groupings were screened for enzyme activity. The fungi were grown for in 24 well plates (Nunclon Multidish, Life Technologies A/S) (well volume 3.4 ml) containing 1.5 ml of agarized growth medium. After a growth period of 10 days at 25° C., 1.5 ml citrate-phosphat buffer (pH 5) were added to the wells and one of 11 enzyme substrates were then added to each well and incubated for 5 hours at 25° C. after which the fluorescence of each well was measured. For each fungus two wells were incubated with each enzyme substrate. All substrates were used in a final concentration of 10 μM. The substrate only and the organism plus the agarized medium were included as controls. […] The fungi subjected to the assaying procedure were all obtained from the culture collection of the Department of General Microbiology at the University of Copenhagen, Denmark.

[8] = tested on: Sodaria fimicola (AAS 17); assay: Screening of fungi for enzyme activity with 4-methylumbelliferone-labelled substrates; format: cell-based; details: substrate 10 μM, 25° C., pH 5
[9] = tested on: Mucor racemosus (AAS 310); assay: as above; format: cell-based; details: substrate 10 μM, 25° C., pH 5
Eurotium sp. (AAS 36) = assay: as above; format: cell-based; details: substrate 10 μM, 25° C., pH 5
[10] = tested on: Ascobolus crenulatus (AAS 1); assay: as above; format: cell-based; details: substrate 10 μM, 25° C., pH 5
[11] = tested on: Paecilomyces farinosus (AGM 5); assay: as above; format: cell-based; details: substrate 10 μM, 25° C., pH 5
[12] = tested on: Aspergillus versicolor (IBT 13738); assay: as above; format: cell-based; details: substrate 10 μM, 25° C., pH 5
[13] = tested on: Penicillium solitum (IBT 13771); assay: as above; format: cell-based; details: substrate 10 μM, 25° C., pH 5

## CC(=O)N[C@H]1[C@H](Oc2ccc3c(C)cc(=O)oc3c2)O[C@H](CO)[C@@H](O)[C@@H]1O [substrate 3, 4-methylumbelliferyl N-acetyl-β-D-blucosaminide]
[1]; mineral medium
  Enzyme activity: amount of released 4-methylumbelliferone: ** (1 ≦ ** 2)
[1]; vegetable juice medium
  Enzyme activity: amount of released 4-methylumbelliferone during 5 hours of incubation: *** (2 ≦ ***)
[2]; mineral medium
  Enzyme activity: amount of released 4-methylumbelliferone: ** (1 ≦ ** 2)
[2]; vegetable juice medium
  Enzyme activity: amount of released 4-methylumbelliferone during 5 hours of incubation: ** (1 ≦ ** 2)
[3]; mineral medium
  Enzyme activity: amount of released 4-methylumbelliferone: * (0.4 ≦ * < 1)
[3]; vegetable juice medium
  Enzyme activity: amount of released 4-methylumbelliferone during 5 hours of incubation: *** (2 ≦ ***)
Human hexosaminidase
  cleavage by human hexosaminidase: also cleaved by human hexosaminidase
[4]; mineral medium
  Enzyme activity: amount of released 4-methylumbelliferone: *** (2 ≦ ***)
[4]; vegetable juice medium
  Enzyme activity: amount of released 4-methylumbelliferone during 5 hours of incubation: *** (2 ≦ ***)
[5]; mineral medium
  Enzyme activity: amount of released 4-methylumbelliferone: ** (1 ≦ ** 2)
[5]; vegetable juice medium
  Enzyme activity: amount of released 4-methylumbelliferone during 5 hours of incubation: *** (2 ≦ ***)
[6]; Aureobasidium pulluians (QM 3092), vegetable juice medium
  Enzyme activity: amount of released 4-methylumbelliferone during 5 hours of incubation: *** (2 ≦ ***)
[6]; Aureobasidium pullulans (QM 3092), mineral medium
  Enzyme activity: amount of released 4-methylumbelliferone: *** (2 ≦ ***)
[7]; mineral medium
  Enzyme activity: amount of released 4-methylumbelliferone: *** (2 ≦ ***)
[7]; vegetable juice medium
  Enzyme activity: amount of released 4-methylumbelliferone during 5 hours of incubation: *** (2 ≦ ***)
All fungi tested
  ability to degrade the substrate: could be demonstrated in all fungi tested
[8]; mineral medium
  Enzyme activity: amount of released 4-methylumbelliferone: ** (1 ≦ ** 2)
[8]; vegetable juice medium
  Enzyme activity: amount of released 4-methylumbelliferone during 5 hours of incubation: *** (2 ≦ ***)
[9]; mineral medium
  Enzyme activity: amount of released 4-methylumbelliferone: *** (2 ≦ ***)
[9]; vegetable juice medium
  Enzyme activity: amount of released 4-methylumbelliferone during 5 hours of incubation: *** (2 ≦ ***)
Eurotium sp. (AAS 36); mineral medium
  Enzyme activity: amount of released 4-methylumbelliferone: *** (2 ≦ ***)
Eurotium sp. (AAS 36); vegetable juice medium
  Enzyme activity: amount of released 4-methylumbelliferone during 5 hours of incubation: *** (2 ≦ ***)
[10]; mineral medium
  Enzyme activity: amount of released 4-methylumbelliferone: *** (2 ≦ ***)
[10]; vegetable juice medium
  Enzyme activity: amount of released 4-methylumbelliferone during 5 hours of incubation: *** (2 ≦ ***)
[11]; mineral medium
  Enzyme activity: amount of released 4-methylumbelliferone: *** (2 ≦ ***)
[11]; vegetable juice medium
  Enzyme activity: amount of released 4-methylumbelliferone during 5 hours of incubation: *** (2 ≦ ***)
[12]; mineral medium
  Enzyme activity: amount of released 4-methylumbelliferone: ** (1 ≦ ** 2)
[12]; vegetable juice medium
  Enzyme activity: amount of released 4-methylumbelliferone during 5 hours of incubation: *** (2 ≦ ***)
[13]; mineral medium
  Enzyme activity: amount of released 4-methylumbelliferone: *** (2 ≦ ***)
[13]; vegetable juice medium
  Enzyme activity: amount of released 4-methylumbelliferone during 5 hours of incubation: *** (2 ≦ ***)
